# Source: ChEMBL document CHEMBL1201862, “PubChem BioAssay data set” (2004)
# Calls of active or inactive are those of the source.
# How the values were obtained:
# Cytochrome P450 3A4 = Cytochrome P450 3A4 (Homo sapiens, UniProt P08684); conditions: Potency;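 note: confirmatory qHTS run detecting inhibitors and substrates of CYP3A4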
# Nonstructural protein 1 = Nonstructural protein 1 (Influenza A virus, UniProt Q194T2); type: functional, Influenza A virus (A/California/07/2009(H1N1))
# [1] = molecular target: T1, Heat shock factor protein 1 (Mus musculus, UniProt P38532); assay: HSF1 potentiators in luciferase reporter cells, confirmation, cell-based, NIH3T3, luminescence, dose retest (AID 435004); type: functional;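 note: stress induced by proteasome inhibitor MG132 added 30 min after compound; luciferase reporter driven by HSF1 response element in NIH3T3 cells; actives raise luminescence as potentiators of the MG132 stress response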
# T1 sequence (P38532 whole entry): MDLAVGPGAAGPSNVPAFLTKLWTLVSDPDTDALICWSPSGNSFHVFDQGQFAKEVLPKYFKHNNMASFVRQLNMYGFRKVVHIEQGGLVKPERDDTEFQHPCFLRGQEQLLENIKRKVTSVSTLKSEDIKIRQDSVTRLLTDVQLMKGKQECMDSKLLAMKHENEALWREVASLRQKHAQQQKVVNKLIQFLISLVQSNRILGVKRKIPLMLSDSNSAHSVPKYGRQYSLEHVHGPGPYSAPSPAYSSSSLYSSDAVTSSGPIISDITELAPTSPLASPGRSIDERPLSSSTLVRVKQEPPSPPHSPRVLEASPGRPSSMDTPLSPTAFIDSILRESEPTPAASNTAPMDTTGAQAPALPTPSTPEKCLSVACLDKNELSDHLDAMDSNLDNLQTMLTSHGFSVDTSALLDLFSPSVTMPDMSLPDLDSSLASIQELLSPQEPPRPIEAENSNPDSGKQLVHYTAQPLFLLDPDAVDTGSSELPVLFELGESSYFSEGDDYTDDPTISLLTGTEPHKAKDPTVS
# Protein skinhead-1 = molecular target: T2, Protein skinhead-1 (Caenorhabditis elegans, UniProt P34707); type: functional
# T2 sequence (P34707 whole entry): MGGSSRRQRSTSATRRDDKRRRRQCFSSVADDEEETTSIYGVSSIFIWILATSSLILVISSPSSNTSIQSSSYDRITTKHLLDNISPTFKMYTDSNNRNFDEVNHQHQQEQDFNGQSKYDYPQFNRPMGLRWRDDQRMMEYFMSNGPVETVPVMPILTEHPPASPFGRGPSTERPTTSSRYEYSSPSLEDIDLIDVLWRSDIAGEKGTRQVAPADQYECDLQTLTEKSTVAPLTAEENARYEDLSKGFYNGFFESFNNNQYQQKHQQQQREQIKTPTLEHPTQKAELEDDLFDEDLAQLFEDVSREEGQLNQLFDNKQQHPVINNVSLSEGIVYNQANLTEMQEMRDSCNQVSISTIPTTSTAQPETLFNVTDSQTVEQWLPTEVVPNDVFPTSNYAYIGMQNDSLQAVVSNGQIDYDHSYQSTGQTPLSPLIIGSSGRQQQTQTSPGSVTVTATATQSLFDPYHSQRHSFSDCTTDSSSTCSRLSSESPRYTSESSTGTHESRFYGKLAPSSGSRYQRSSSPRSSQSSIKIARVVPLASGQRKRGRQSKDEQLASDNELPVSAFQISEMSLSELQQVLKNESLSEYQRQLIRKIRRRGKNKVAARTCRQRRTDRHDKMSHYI
# [2] = test system: Streptococcus sp. 'group A'; assay: growth inhibition of control SK(-) GAS strain, dose response, counter-screen for streptokinase expression inhibitor project, luminescence, kanamycin, BacTiterGlo, confirmation (AID 1900); type: functional, organism-based
# [3] = NIH-3T3 fibroblast cytotoxicity, dose response, cytotoxicity control, cell-based, fluorescence, Alamar Blue, secondary assay (AID 2327); type: functional;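 note: NIH-3T3 mouse fibroblasts cultured with fluconazole at 8 µg/mL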
# Streptococcus = assay: Group A Streptococcus viability loss, dose response, counter-screen for streptokinase expression inhibitor project, luminescence, BacTiterGlo (AID 1915); type: functional, organism-based;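 note: potency for reduction of bacterial viability or growth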
# Streptokinase A = molecular target: T3, Streptokinase A (Streptococcus pyogenes serotype M1, UniProt P10520); assay: S. pyogenes streptokinase expression inhibitors, potency, dose response, plasminogen activation absorbance, OD405 (AID 1914); type: functional, Streptococcus pyogenes M1 GAS;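 note: secreted streptokinase activity via plasminogen activation per viability signal from cell pellet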
# T3 sequence (P10520 whole entry): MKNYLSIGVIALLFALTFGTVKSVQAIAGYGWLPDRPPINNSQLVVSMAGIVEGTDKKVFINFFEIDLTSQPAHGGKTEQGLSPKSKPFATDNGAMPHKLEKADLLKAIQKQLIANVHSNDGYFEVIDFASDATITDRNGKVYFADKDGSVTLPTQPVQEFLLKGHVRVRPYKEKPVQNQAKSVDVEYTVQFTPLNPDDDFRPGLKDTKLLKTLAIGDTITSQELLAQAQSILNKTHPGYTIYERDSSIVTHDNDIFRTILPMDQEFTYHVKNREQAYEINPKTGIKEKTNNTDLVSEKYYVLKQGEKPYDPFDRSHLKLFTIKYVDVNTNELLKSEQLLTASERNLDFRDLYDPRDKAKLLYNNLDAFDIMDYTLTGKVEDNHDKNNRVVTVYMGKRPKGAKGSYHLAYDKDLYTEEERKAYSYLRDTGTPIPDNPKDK
# [4] = C. albicans growth with fluconazole, confirmation, fluorescence, retest (AID 2467); type: functional, cell-based
# [5] = molecular target: T4, Ubiquitin-conjugating enzyme E2 N (Homo sapiens, UniProt P61088); type: functional;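 note: Dose-response confirmation in a TR-FRET assay detecting UBC13-driven polyubiquitin chain formation, inhibition measured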
# T4 sequence (P61088 whole entry): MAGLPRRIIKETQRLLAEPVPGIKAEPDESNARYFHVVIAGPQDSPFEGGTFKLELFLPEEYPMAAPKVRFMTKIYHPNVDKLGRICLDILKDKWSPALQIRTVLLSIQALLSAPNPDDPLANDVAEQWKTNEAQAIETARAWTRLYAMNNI
# Protein RecA = molecular target: T5, Protein RecA (Mycobacterium tuberculosis, UniProt P9WHJ3); assay: Fluorescence Cell-Free Homogeneous Dose Retest to Identify Inhibitors of RecA-Intein Splicing Activity. [Related pubchem assays (depositor defined):AID2097, AID2223, AID489010, AID492950]; type: functional
# T5 sequence (P9WHJ3 whole entry): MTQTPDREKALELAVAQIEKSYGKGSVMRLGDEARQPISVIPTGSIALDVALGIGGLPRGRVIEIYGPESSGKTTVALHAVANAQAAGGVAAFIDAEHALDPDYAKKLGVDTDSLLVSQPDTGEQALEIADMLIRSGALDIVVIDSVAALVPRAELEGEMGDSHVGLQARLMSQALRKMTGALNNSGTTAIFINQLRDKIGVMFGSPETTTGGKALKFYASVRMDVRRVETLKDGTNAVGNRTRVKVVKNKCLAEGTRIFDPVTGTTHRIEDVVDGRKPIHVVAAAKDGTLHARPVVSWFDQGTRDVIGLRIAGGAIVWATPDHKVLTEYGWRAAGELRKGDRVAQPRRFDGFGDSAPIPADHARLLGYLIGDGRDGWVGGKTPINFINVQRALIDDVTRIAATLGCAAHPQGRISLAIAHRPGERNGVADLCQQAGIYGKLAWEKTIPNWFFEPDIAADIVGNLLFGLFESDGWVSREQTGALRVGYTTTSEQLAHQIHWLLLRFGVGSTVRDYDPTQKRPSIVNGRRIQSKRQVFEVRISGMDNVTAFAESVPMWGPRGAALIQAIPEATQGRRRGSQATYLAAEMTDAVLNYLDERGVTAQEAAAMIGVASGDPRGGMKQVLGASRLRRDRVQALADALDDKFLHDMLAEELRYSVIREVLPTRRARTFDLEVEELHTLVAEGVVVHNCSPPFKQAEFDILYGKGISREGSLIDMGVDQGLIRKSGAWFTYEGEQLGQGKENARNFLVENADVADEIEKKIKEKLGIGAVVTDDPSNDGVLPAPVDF
# [6] = molecular target: T6, Rac GTPase-activating protein 1 (Homo sapiens, UniProt Q9H0H5); assay: MgcRacGAP GTPase-activating activity inhibitors, confirmation, biochemical, ADP Hunter fluorescence, primary and confirmatory (AID 624330); type: functional
# T6 sequence (Q9H0H5 whole entry): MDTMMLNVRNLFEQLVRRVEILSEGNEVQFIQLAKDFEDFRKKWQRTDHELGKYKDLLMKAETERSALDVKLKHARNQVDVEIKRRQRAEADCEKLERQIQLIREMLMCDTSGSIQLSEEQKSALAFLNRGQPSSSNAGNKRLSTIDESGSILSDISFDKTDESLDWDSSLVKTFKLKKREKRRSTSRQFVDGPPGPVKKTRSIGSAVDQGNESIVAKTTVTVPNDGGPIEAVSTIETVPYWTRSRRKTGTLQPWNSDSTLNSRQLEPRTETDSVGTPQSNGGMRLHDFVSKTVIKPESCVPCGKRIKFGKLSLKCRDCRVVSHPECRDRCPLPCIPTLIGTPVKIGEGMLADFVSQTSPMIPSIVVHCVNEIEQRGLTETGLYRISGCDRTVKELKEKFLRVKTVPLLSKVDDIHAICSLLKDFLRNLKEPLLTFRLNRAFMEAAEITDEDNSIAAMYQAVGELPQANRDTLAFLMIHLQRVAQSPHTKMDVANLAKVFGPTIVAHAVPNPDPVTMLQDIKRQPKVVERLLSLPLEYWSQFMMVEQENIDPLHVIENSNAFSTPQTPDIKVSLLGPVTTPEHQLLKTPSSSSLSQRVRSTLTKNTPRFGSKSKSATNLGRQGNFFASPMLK
# [7] = molecular target: T7, Replicative DNA helicase DnaB (Mycobacterium tuberculosis, UniProt P9WMR3); assay: DnaB intein splicing inhibitors, dose response, biochemical, cell-free fluorescence (AID 449749); type: functional
# T7 sequence (P9WMR3 whole entry): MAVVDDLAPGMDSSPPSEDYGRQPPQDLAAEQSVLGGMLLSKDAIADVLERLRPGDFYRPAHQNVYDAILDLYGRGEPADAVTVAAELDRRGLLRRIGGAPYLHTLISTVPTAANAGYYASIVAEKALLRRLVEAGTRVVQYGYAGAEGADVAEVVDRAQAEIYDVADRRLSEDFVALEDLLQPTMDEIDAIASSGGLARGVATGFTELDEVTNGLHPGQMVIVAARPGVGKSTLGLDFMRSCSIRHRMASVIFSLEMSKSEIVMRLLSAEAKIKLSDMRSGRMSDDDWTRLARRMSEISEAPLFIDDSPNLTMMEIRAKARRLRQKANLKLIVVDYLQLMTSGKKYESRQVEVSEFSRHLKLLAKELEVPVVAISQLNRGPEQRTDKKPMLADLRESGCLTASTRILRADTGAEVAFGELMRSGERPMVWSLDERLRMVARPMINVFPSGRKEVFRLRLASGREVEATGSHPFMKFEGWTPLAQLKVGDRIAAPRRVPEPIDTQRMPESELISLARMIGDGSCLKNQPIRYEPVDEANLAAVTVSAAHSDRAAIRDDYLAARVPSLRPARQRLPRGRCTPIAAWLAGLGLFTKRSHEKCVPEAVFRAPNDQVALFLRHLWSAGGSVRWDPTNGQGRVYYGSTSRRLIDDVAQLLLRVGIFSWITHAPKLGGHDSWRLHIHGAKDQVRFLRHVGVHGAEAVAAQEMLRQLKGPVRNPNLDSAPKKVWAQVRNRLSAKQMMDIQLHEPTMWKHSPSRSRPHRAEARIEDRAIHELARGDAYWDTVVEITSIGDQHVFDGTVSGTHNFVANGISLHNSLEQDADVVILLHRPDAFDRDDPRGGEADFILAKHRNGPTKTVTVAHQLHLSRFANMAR
# Sequence of Nonstructural protein 1 (Q194T2 whole entry): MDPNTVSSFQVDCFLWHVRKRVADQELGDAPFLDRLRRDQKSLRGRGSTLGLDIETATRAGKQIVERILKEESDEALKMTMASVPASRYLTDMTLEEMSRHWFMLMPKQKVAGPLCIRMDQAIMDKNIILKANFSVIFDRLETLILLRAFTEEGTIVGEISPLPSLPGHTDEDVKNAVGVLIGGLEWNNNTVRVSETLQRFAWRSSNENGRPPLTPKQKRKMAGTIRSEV
# Sequence of Cytochrome P450 3A4 (P08684 whole entry): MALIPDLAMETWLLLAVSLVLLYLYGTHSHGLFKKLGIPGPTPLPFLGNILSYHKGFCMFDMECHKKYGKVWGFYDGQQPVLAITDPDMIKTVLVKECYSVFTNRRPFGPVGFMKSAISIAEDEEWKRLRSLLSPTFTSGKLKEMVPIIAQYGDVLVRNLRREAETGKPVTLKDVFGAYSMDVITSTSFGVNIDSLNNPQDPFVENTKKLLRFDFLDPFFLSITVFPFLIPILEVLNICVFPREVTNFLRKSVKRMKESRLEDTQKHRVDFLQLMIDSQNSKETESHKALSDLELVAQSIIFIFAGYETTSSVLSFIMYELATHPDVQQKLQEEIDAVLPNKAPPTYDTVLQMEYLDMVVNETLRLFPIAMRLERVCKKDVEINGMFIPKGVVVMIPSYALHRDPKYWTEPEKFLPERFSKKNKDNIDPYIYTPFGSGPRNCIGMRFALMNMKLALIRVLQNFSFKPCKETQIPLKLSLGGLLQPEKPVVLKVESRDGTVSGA
Structure (SMILES),AC50 (Cytochrome P450 3A4),EC50 [1],other results
COCCNC(=O)[C@@]1(Cc2ccccc2)C=C[C@@H](C)N1C(C)=O,20 µM (inconclusive),,
Cc1ccc(N)cc1[N+](=O)[O-],31.6 µM (inconclusive),,
COc1ccc(C(CCNCc2ccc(N(C)C)cc2)C(C)C)cc1 (centres undefined),,,IC50 (Nonstructural protein 1): 39.1 µM (active)
COc1cc(OC)c2c(c1C(CCN1CCOCC1)c1ccc(N(C)C)cc1)OC(=O)CC2c1ccc(N(C)C)cc1 (centres undefined),,,IC50 (Nonstructural protein 1): 14.5 µM (active)
Nc1cc(Cl)cc(Cl)c1,31.6 µM (inconclusive),,
CC1Cc2c(COc3ccccc3)nc3c(c2CO1)CN(CCOc1ccccc1)CC3 (centres undefined),3.98 µM (inconclusive),,
Cc1ccc(C)c(S(=O)(=O)N2CCCCC2CCNC(=O)C(=O)NCCc2ccco2)c1 (centres undefined),,> 260 µM (inactive),
CN(Cc1cccc2cnccc12)C(=O)c1cc(COc2ccc(F)cc2F)on1,,> 260 µM (inactive),
O=C(COC(=O)/C=C/c1cccc([N+](=O)[O-])c1)NCc1ccco1,,> 260 µM (inactive),
COCCn1c(C)cc(C(=O)COC(=O)c2ccc(-n3nc(C)cc3C)cc2)c1C,,> 260 µM (inactive),
c1ccc(-c2ccc(SCc3cccnc3)nn2)nc1,,,IC50 (Nonstructural protein 1): 5.07 µM (active)
Nc1cc([N+](=O)[O-])ccc1C(=O)O,10 µM (inconclusive),,
Cc1cc(OCC(=O)N(Cc2ccco2)C2CCS(=O)(=O)C2)cc(C)c1Cl (centres undefined),,> 260 µM (inactive),
Nc1cccc2c1C(=O)c1ccc(Cl)cc1C2=O,,,IC50 (Protein skinhead-1): > 100 µM (inactive); IC50 (Nonstructural protein 1): 24.6 µM (active)
CC1(C)CC(CCN)(Cc2ccccc2Cl)CCO1 (centres undefined),,> 260 µM (inactive),
Cc1ncc(CO)c(/C=N/NC(=S)Nc2ccc(Cl)c(Cl)c2)c1O,,,EC50 [2]: 4.1 µM (active); EC50 [3]: 45.4 µM (inconclusive); EC50 (Streptococcus): 91.4 µM (active); EC50 (Streptokinase A): > 150 µM (not active); EC50 [4]: > 38 µM (not active); IC50 [5]: > 20 µM (inactive)
COc1cc(/C=N/Nc2snc(SC)c2C#N)ccc1O,,> 260 µM (inactive),
CCOc1cccc(/C=N/NC(=S)NCCN2CCOCC2)c1O,,,IC50 (Nonstructural protein 1): 16.5 µM (active)
Nc1nnnn1CC(=O)N/N=C/c1ccccn1,,> 260 µM (inactive),
CCc1nnc(N/N=C/c2cc(Br)c(O)cc2O)n1N,,,EC50 (Protein RecA): 9.31 µM (active); IC50 [6]: 66.2 µM (active); AC50 [7]: > 380 µM (inactive); IC50 (Nonstructural protein 1): 6.41 µM (active)
O=[N+]([O-])c1ccc2cn[nH]c2c1,12.6 µM (inconclusive),,
Cc1ccc(Cl)cc1N,31.6 µM (inconclusive),,
Cc1cc(=O)oc2cc(O)c(O)cc12 [4-METHYLESCULETIN],15.8 µM (inconclusive),,
CC1=C(/C=C/C(C)=C/C=C/C(C)=C/CO)C(C)(C)CCC1 [RETINOL],15.8 µM (inconclusive),,
C[C@]12CCC(=O)C[C@@H]1CC[C@@H]1[C@@H]2CC[C@]2(C)[C@@H](O)CC[C@@H]12 [STANOLONE],15.8 µM (inconclusive),,
